The values below come from US9562035B2, “Benzamide derivative useful as FASN inhibitors for the treatment of cancer” (Janssen Pharmaceutica NV, priority 2013, dated 2017).

Each structure is given as a SMILES string. pIC50: −log10 of the molar value.

The test system of experiment [1] is A2780 ovarian cells. The experiment in a line: A2780 Ovarian Cell Proliferation Assay in Lipid Reduced Medium, without Palmitate. The note with it: Homo sapiens, A2780; lipid reduced medium, without palmitate, 96 h, MTT; read-out: Proliferation A2780 w/o Palmitate pIC50 (converted). Format: cell-based. An outline of the steps:
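A2780 cells were seeded in 10% FCS medium and switched next day to 10% lipid-reduced serum without palmitate. Compounds at 0.01–30 μM were added with 0.2% DMSO, 0.2% fatty-acid-free BSA and 0.25% ethanol final. After 96 h, MTT absorbance at 544 nm was normalized to plate controls, and IC50/pIC50 came from a 4-parameter logistic fit.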

Experiment [2] addresses T1, hFASN enzyme (full length) (Homo sapiens, UniProt P49327).
T1 construct: 10 μL hFASN enzyme (full length, 300 ng, purified in house); made in house
The experiment in a line: Fatty Acid Synthase (FASN) Inhibition Scintillation Proximity Assay. In kind it is biochemical. The note with it: for pIC50: mean where tested more than once, ~ = standard error of pIC50 larger than 0.5; for inhibition at 10 µM: read-out: FASN % Effect @1E−05M. An outline of the steps: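 Purified full-length human FASN (300 ng) incubated 60 min at room temperature with NADPH, [3H]-acetyl-CoA and malonyl-CoA in 100 mM KH2PO4 pH 7.5, 1 mM DTT; compound at 30 μM to 0.01 μM. [3H]-palmitate captured by SPA imaging beads; IC50 from 4-parameter fit, reported as pIC50.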

Experiment [3] concerns the target T2, FASN Keto-reductase Domain (Homo sapiens, UniProt P49327).
T2 construct: 10 μL hFASN enzyme (full length, 300 ng, purified in house) and 360 μM NADPH; made in house
The experiment in a line: Fatty Acid Synthase Keto-Reductase Domain (FASN KR) Inhibition. The settings on record: mean where tested more than once; read-out: FASN K-R Domain pIC50 (converted). In kind it is biochemical. An outline of the steps:
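Full-length human FASN (300 ng) in 100 mM KH2PO4 pH 7.5 with 360 μM NADPH and 180 mM ethyl acetoacetate (stock); A340 decrease read over 20 min at room temperature.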

Experiment [4] concerns A2780 ovarian cells. The experiment in a line: A2780 Ovarian Cell Proliferation Assay in Lipid Reduced Medium, with Palmitate (control). In kind it is cell-based. The settings on record: Homo sapiens, A2780; lipid reduced medium, 25 μM palmitate, 96 h, MTT; read-out: Proliferation A2780 with Palmitate pIC50 (converted). An outline of the steps: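 A2780 cells were seeded in RPMI1640 with 10% FCS, then switched next day to medium with 10% lipid-reduced serum. Compound was added with final 25 μM palmitate, 0.2% fatty-acid-free BSA and 0.2% DMSO, and incubated 96 h at 37 °C. Read-out was MTT absorbance at 544 nm; pIC50 = −log(IC50) from curve fit.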

T2 sequence (P49327 whole entry, the tested form may be a part): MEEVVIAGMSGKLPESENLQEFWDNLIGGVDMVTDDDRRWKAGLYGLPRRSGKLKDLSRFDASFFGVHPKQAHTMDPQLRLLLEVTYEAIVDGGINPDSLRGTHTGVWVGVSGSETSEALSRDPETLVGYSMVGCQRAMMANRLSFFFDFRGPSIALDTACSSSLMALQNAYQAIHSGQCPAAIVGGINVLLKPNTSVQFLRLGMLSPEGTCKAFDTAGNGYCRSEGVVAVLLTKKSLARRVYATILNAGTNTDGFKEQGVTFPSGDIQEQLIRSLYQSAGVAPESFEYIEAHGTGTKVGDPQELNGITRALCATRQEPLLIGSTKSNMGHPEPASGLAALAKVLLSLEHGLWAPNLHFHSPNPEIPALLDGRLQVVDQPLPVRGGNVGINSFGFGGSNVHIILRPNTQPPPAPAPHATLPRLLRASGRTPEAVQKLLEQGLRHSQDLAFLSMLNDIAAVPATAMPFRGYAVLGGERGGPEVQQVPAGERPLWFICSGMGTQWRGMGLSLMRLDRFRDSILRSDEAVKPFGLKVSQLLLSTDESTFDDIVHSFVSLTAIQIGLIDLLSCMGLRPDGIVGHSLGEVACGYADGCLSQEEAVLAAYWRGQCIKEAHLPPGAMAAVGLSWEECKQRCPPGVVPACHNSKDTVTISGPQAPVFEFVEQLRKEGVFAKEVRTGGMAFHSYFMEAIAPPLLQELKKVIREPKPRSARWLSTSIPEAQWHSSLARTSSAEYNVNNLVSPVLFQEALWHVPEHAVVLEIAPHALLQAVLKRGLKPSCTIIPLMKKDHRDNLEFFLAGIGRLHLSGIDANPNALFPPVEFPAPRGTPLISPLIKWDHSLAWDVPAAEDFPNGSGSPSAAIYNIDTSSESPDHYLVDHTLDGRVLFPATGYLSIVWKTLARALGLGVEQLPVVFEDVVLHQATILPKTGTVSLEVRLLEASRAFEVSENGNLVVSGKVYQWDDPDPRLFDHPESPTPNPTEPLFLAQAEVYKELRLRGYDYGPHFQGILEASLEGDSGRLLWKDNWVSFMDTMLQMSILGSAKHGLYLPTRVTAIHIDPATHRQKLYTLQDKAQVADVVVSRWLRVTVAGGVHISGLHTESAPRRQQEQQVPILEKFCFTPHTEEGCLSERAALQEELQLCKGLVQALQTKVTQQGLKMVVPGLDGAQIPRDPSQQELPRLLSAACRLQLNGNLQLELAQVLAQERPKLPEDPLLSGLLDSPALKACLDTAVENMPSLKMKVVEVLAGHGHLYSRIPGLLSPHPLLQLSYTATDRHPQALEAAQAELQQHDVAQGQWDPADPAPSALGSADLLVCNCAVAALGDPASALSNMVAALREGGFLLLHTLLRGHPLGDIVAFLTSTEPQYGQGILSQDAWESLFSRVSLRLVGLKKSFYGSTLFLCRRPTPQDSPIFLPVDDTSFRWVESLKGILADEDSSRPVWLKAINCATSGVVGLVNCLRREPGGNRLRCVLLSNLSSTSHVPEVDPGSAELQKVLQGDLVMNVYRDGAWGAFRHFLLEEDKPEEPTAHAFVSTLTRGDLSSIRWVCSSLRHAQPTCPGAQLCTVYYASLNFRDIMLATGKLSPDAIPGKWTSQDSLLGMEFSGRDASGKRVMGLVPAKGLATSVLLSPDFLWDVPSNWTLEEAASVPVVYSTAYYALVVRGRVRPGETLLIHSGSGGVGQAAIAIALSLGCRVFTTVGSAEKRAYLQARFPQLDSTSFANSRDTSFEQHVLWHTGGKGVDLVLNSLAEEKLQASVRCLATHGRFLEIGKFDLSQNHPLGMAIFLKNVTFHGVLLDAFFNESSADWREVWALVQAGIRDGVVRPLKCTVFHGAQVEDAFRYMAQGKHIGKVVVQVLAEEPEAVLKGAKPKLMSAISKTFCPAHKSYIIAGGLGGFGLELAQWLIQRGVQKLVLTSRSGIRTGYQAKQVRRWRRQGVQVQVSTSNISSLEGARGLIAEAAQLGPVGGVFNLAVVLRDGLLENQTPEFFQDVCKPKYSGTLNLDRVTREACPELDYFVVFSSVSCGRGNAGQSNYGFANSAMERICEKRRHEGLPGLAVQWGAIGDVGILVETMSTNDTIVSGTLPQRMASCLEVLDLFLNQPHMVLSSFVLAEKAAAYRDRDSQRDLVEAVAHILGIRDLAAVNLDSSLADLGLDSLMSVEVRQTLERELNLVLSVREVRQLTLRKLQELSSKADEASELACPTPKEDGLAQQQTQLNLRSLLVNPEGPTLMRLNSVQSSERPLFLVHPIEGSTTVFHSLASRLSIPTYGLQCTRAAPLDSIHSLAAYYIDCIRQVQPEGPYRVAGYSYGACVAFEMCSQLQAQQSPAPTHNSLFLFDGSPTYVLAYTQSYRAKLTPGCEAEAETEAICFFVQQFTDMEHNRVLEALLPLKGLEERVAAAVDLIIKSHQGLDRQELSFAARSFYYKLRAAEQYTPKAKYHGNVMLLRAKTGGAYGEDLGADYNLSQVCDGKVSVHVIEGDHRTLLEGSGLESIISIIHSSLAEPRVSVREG
T1 sequence (P49327 whole entry): as the sequence (P49327 whole entry, the tested form may be a part) above

With `Cc1ccc(C(=O)N2CCC(c3ccc(-c4cnn(C)c4)cc3)CC2)cc1NC(=O)C1CN(CC(C)C)C1` [Compound 210, 1-isobutyl-N-(2-methyl-5-(4-(4-(1-methyl-1H-pyrazol-4-yl)phenyl)piperidine-1-carbonyl)phenyl)azetidine-3-carboxamide], the IC50 in the experiment on A2780 ovarian cells [1] was 110 nM; in experiment [3], 309 nM; with A2780 ovarian cells [4], over 10000 nM. Besides, the pIC50 in experiment [2] is 7.07. The inhibition at 10 µM in experiment [2] is 108%.

On to `CCCCN1CCC(C(=O)Nc2cc(C(=O)N3CCC(c4ccc(-c5cnn(C)c5)cc4)CC3)ccc2C)CC1` [Compound 211, 1-butyl-N-(2-methyl-5-(4-(4-(1-methyl-1H-pyrazol-4-yl)phenyl)piperidine-1-carbonyl)phenyl)piperidine-4-carboxamide], for which the IC50 is 18.6 nM in the experiment with A2780 ovarian cells [1], 74.1 nM in experiment [3] and over 10000 nM in the experiment on A2780 ovarian cells [4]. The same molecule showed a negative logarithm of the IC50 (pIC50) in experiment [2] of 7.50. Further, in experiment [2], the inhibition at 10 µM turned out to be 113%.

On to `CCCCN1CCC(C(=O)Nc2cc(C(=O)N3CCC(c4ccc(-c5cnn(C)c5)cc4)CC3)ccc2C)C1` (stereo not drawn) [Compound 212, 1-butyl-N-(2-methyl-5-(4-(4-(1-methyl-1H-pyrazol-4-yl)phenyl)piperidine-1-carbonyl)phenyl)pyrrolidine-3-carboxamide], for which the IC50 in the experiment with A2780 ovarian cells [1] was 120 nM; in experiment [3] it was 324 nM; with A2780 ovarian cells [4] it was over 10000 nM. In experiment [2], this molecule gave a negative logarithm of the IC50 (pIC50) of 6.92. The inhibition at 10 µM in experiment [2] stood at 108%.

As to `Cc1ccc(C(=O)N2CCC(c3ccc(-c4cnn(C)c4)cc3)CC2)cc1NC(=O)C1CN(CCC(C)C)C1` [Compound 213, 1-isopentyl-N-(2-methyl-5-(4-(4-(1-methyl-1H-pyrazol-4-yl)phenyl)piperidine-1-carbonyl)phenyl)azetidine-3-carboxamide], the values for the IC50 (in the experiment on A2780 ovarian cells [1]; in experiment [3]; with A2780 ovarian cells [4]) were 64.6 nM, 195 nM and over 10000 nM, respectively. This molecule gave a negative logarithm of the IC50 (pIC50) in experiment [2] of 7.34. In experiment [2], the inhibition at 10 µM came to 111%.

As to `CCCCCN1CC(C(=O)Nc2cc(C(=O)N3CCC(c4ccc(-c5cnn(C)c5)cc4)CC3)ccc2C)C1` [Compound 214, N-(2-methyl-5-(4-(4-(1-methyl-1H-pyrazol-4-yl)phenyl)piperidine-1-carbonyl)phenyl)-1-pentylazetidine-3-carboxamide], the values for the IC50 (with A2780 ovarian cells [1]; in experiment [3]; in the experiment with A2780 ovarian cells [4]) were 275 nM, 282 nM and 9550 nM, respectively. Further, in experiment [2], the pIC50 was 6.78. In addition, the inhibition at 10 µM in experiment [2] was 107%.

As for `CCCCCN1CCC(C(=O)Nc2cc(C(=O)N3CCC(c4ccc(-c5cnn(C)c5)cc4)CC3)ccc2C)C1` (stereo not drawn) [Compound 215, N-(2-methyl-5-(4-(4-(1-methyl-1H-pyrazol-4-yl)phenyl)piperidine-1-carbonyl)phenyl)-1-pentylpyrrolidine-3-carboxamide], the IC50 in the experiment on A2780 ovarian cells [1] was 191 nM; in experiment [3], 309 nM; in the experiment with A2780 ovarian cells [4], 9330 nM. The molecule further had a pIC50 in experiment [2] of 6.98. The inhibition at 10 µM in experiment [2] worked out at 107%.

For `CCCCCCN1CCC(C(=O)Nc2cc(C(=O)N3CCC(c4ccc(-c5cnn(C)c5)cc4)CC3)ccc2C)CC1` [Compound 216], the IC50 in the experiment on A2780 ovarian cells [1] is 43.7 nM; in experiment [3], 91.2 nM; in the experiment on A2780 ovarian cells [4] it was 5620 nM. For the same molecule, the pIC50 in experiment [2] is 7.44. In addition, the inhibition at 10 µM in experiment [2] is 113%.

As to `Cc1ccc(C(=O)N2CCC(c3ccc(-c4cnn(C5CCOCC5)c4)cc3)CC2)cc1NC(=O)c1ccc(NC(C)C)nc1` [Compound 217], the IC50 with A2780 ovarian cells [1] is 214 nM; in experiment [3] it was 501 nM; with A2780 ovarian cells [4] it was over 10000 nM. Further, the pIC50 in experiment [2] was 6.76. In experiment [2], the inhibition at 10 µM came to 105%.

`CCCCCCN1CCC(C(=O)Nc2cc(C(=O)N3CCC(c4ccc(-c5cnn(C)c5)cc4)CC3)ccc2C)C1` (stereo not drawn) [Compound 218, 1-hexyl-N-(2-methyl-5-(4-(4-(1-methyl-1H-pyrazol-4-yl)phenyl)piperidine-1-carbonyl)phenyl)pyrrolidine-3-carboxamide]: the figures for the IC50 (in the experiment with A2780 ovarian cells [1]; in experiment [3]; in the experiment on A2780 ovarian cells [4]) were 407 nM, 389 nM and 8510 nM, respectively. Further, the pIC50 in experiment [2] is 6.84. For the same molecule, in experiment [2], the inhibition at 10 µM was 105%.

Take `Cc1ccc(C(=O)N2CCC(c3ccc(-c4cnn(C)c4)cc3)CC2)cc1NC(=O)C1CN(C(=O)C2CC2)C1` [Compound 219, 1-(cyclopropanecarbonyl)-N-(2-methyl-5-(4-(4-(1-methyl-1H-pyrazol-4-yl)phenyl)piperidine-1-carbonyl)phenyl)azetidine-3-carboxamide]: the IC50 is 234 nM in the experiment on A2780 ovarian cells [1], 200 nM in experiment [3] and over 10000 nM in the experiment with A2780 ovarian cells [4]. Moreover, the pIC50 in experiment [2] was 7.19. For the same molecule, the inhibition at 10 µM in experiment [2] is 116%.

For the molecule `Cc1ccc(C(=O)N2CCC(c3ccc(-c4cnn(C)c4)cc3)CC2)cc1NC(=O)C1CCN(C(=O)C2CC2)C1` (stereo not drawn) [Compound 220, 1-(cyclopropanecarbonyl)-N-(2-methyl-5-(4-(4-(1-methyl-1H-pyrazol-4-yl)phenyl)piperidine-1-carbonyl)phenyl)pyrrolidine-3-carboxamide], the IC50 in the experiment with A2780 ovarian cells [1] is 95.5 nM; in experiment [3], 174 nM; with A2780 ovarian cells [4], over 10000 nM. Moreover, the pIC50 in experiment [2] was 7.17. For the same molecule, in experiment [2], the inhibition at 10 µM is 110%.

As for `Cc1ccc(C(=O)N2CCC(c3ccc(-c4cnn(CC5CCC5)c4)cc3)CC2)cc1NC(=O)c1ccc(NC(C)C)nc1` [Compound 221, N-(5-(4-(4-(1-(cyclobutylmethyl)-1H-pyrazol-4-yl)phenyl)piperidine-1-carbonyl)-2-methylphenyl)-6-(isopropylamino)nicotinamide], the IC50 with A2780 ovarian cells [1] is 91.2 nM; in experiment [3], 245 nM; with A2780 ovarian cells [4] it was 5010 nM. The same molecule showed a negative logarithm of the IC50 (pIC50) in experiment [2] of 7.12. For the same molecule, in experiment [2], the inhibition at 10 µM is 109%.

In the case of `Cc1ccc(C(=O)N2CCC(c3ccc(-c4cnn(C)c4)cc3)CC2)cc1NC(=O)C1CN(C)C1` [Compound 222, 1-methyl-N-(2-methyl-5-(4-(4-(1-methyl-1H-pyrazol-4-yl)phenyl)piperidine-1-carbonyl)phenyl)azetidine-3-carboxamide], the results for the IC50 (in the experiment with A2780 ovarian cells [1]; in experiment [3]; in the experiment on A2780 ovarian cells [4]) were 8.71 nM, 60.3 nM and over 10000 nM, respectively. Also, in experiment [2], the pIC50 is 7.65. The inhibition at 10 µM in experiment [2] stood at 113%.

On to `Cc1ccc(C(=O)N2CCC(c3ccc(-c4ccsc4)cc3)CC2)cc1NC(=O)c1ccc(NC(C)C)nc1` [Compound 223, 6-(isopropylamino)-N-(2-methyl-5-(4-(4-(thiophen-3-yl)phenyl)piperidine-1-carbonyl)phenyl)nicotinamide], for which the IC50 in the experiment with A2780 ovarian cells [1] is 148 nM; in experiment [3], 141 nM; in the experiment with A2780 ovarian cells [4] it was 2040 nM. For the same molecule, the pIC50 in experiment [2] is 7.16. The inhibition at 10 µM in experiment [2] stood at 102%.

`Cc1ccc(C(=O)N2CCC(c3ccc(-c4ccccc4F)cc3)CC2)cc1NC(=O)c1ccc(NC(C)C)nc1` [Compound 224, N-(5-(4-(2′-fluoro-[1,1′-biphenyl]-4-yl)piperidine-1-carbonyl)-2-methylphenyl)-6-(isopropylamino)nicotinamide]: the IC50 with A2780 ovarian cells [1] is 372 nM; in experiment [3] it was 282 nM; with A2780 ovarian cells [4] it was 5750 nM. For the same molecule, the pIC50 in experiment [2] was 6.77. Besides, the inhibition at 10 µM in experiment [2] was 92%.
